# Measurements published in ChEMBL document CHEMBL4308841, “Synthesis, in vitro antiproliferative activity, and kinase inhibitory effects of pyrazole-containing diarylureas and diarylamides” (Eur J Med Chem, 2018).
# pIC50: −log10 of the molar value.
# Assays:
# CCRF-CEM = test: Growth inhibition of human CCRF-CEM cells incubated for 48 hrs by sulforhodamine B assay; type: functional, cell-based
# HOP-62 = test: Growth inhibition of human HOP62 cells incubated for 48 hrs by sulforhodamine B assay; type: functional, cell-based; details: HOP-62, 48 h
# NCI-H460 [1] = test: Growth inhibition of human NCI-H460 cells incubated for 48 hrs by sulforhodamine B assay; type: functional, cell-based; details: NCI-H460, 48 h
# HCT-15 = test: Growth inhibition of human HCT15 cells incubated for 48 hrs by sulforhodamine B assay; type: functional, cell-based; details: HCT-15, 48 h
# SK-MEL-5 = test: Growth inhibition of human SK-MEL-5 cells incubated for 48 hrs by sulforhodamine B assay; type: functional, cell-based; details: SK-MEL-5, 48 h
# MCF7 [2] = test: Growth inhibition of human MCF7 cells incubated for 48 hrs by sulforhodamine B assay; type: functional, cell-based; details: MCF7, 48 h
# MDA-MB-468 = test: Growth inhibition of human MDA-MB-468 cells incubated for 48 hrs by sulforhodamine B assay; type: functional, cell-based; details: MDA-MB-468, 48 h
# A549 [3] = test: Growth inhibition of human A549/ATCC cells assessed as cell growth at 0.01 uM incubated for 48 hrs by sulforhodamine B assay relative to control; type: functional; details: A549, 48 h, read-out: Activity
# NCI-H226 = test: Growth inhibition of human NCI-H226 cells assessed as cell growth at 0.01 uM incubated for 48 hrs by sulforhodamine B assay relative to control; type: functional; details: NCI-H226, 48 h, read-out: Activity
# M14 = test: Growth inhibition of human M14 cells assessed as cell growth at 0.01 uM incubated for 48 hrs by sulforhodamine B assay relative to control; type: functional; details: M14, 48 h, read-out: Activity
# OVCAR-4 = test: Growth inhibition of human OVCAR4 cells assessed as cell growth at 0.01 uM incubated for 48 hrs by sulforhodamine B assay relative to control; type: functional; details: OVCAR-4, 48 h, read-out: Activity
# ACHN [4] = test: Growth inhibition of human ACHN cells assessed as cell growth at 0.01 uM incubated for 48 hrs by sulforhodamine B assay relative to control; type: functional; details: read-out: Activity
# CAKI-1 = test: Growth inhibition of human Caki1 cells assessed as cell growth at 0.01 uM incubated for 48 hrs by sulforhodamine B assay relative to control; type: functional; details: CAKI-1, 48 h, read-out: Activity
# UO-31 = test: Growth inhibition of human UO31 cells assessed as cell growth at 0.01 uM incubated for 48 hrs by sulforhodamine B assay relative to control; type: functional; details: UO-31, 48 h, read-out: Activity
# PC-3 [5] = test: Growth inhibition of human PC3 cells assessed as cell growth at 0.01 uM incubated for 48 hrs by sulforhodamine B assay relative to control; type: functional; details: PC-3, 48 h, read-out: Activity
# DU-145 = test: Growth inhibition of human DU145 cells assessed as cell growth at 0.01 uM incubated for 48 hrs by sulforhodamine B assay relative to control; type: functional; details: DU-145, 48 h, read-out: Activity
# Hs-578T = test: Growth inhibition of human Hs578T cells assessed as cell growth at 0.01 uM incubated for 48 hrs by sulforhodamine B assay relative to control; type: functional; details: read-out: Activity
# SNB-75 = test: Growth inhibition of human SNB75 cells assessed as cell growth at 0.1 uM incubated for 48 hrs by sulforhodamine B assay relative to control; type: functional; details: SNB-75, 48 h, read-out: Activity
# UACC-62 = test: Growth inhibition of human UACC62 cells assessed as cell growth at 0.1 uM incubated for 48 hrs by sulforhodamine B assay relative to control; type: functional; details: UACC-62, 48 h, read-out: Activity
# 786-0 = test: Growth inhibition of human 786-0 cells assessed as cell growth at 0.1 uM incubated for 48 hrs by sulforhodamine B assay relative to control; type: functional; details: 786-0, 48 h, read-out: Activity
# PC-3 [6] = test: Growth inhibition of human PC3 cells assessed as cell growth at 0.1 uM incubated for 48 hrs by sulforhodamine B assay relative to control; type: functional; details: PC-3, 48 h, read-out: Activity
# A549 [7] = test: Growth inhibition of human A549/ATCC cells assessed as cell growth at 1 uM incubated for 48 hrs by sulforhodamine B assay relative to control; type: functional; details: A549, 48 h, read-out: Activity
# NCI-H460 [8] = test: Growth inhibition of human NCI-H460 cells assessed as cell growth at 1 uM incubated for 48 hrs by sulforhodamine B assay relative to control; type: functional; details: NCI-H460, 48 h, read-out: Activity
# HCC 2998 = test: Growth inhibition of human HCC2998 cells assessed as cell growth at 1 uM incubated for 48 hrs by sulforhodamine B assay relative to control; type: functional; details: HCC 2998, 48 h, read-out: Activity
# ACHN [9] = test: Growth inhibition of human ACHN cells assessed as cell growth at 1 uM incubated for 48 hrs by sulforhodamine B assay relative to control; type: functional; details: read-out: Activity
# MCF7 [10] = test: Growth inhibition of human MCF7 cells assessed as cell growth at 1 uM incubated for 48 hrs by sulforhodamine B assay relative to control; type: functional; details: MCF7, 48 h, read-out: Activity
# BT-549 = test: Growth inhibition of human BT549 cells assessed as cell growth at 1 uM incubated for 48 hrs by sulforhodamine B assay relative to control; type: functional; details: BT-549, 48 h, read-out: Activity
# NCI-H23 = test: Growth inhibition of human NCI-H23 cells assessed as cell growth at 100 uM incubated for 48 hrs by sulforhodamine B assay relative to control; type: functional; details: NCI-H23, 48 h, read-out: Activity
# [11] = read-out: LC50 (the source's name)
# [12] = read-out: pLC50 (the source's name) (converted)
compound,measurement,setting,value
O=C(Nc1cccc(-n2cc(-c3ccncc3)c(-c3cc(O)cc(Cl)c3)n2)c1)c1cc(C(F)(F)F)cc(C(F)(F)F)c1,GI50,CCRF-CEM; read-out: GI50,2.58 µM
same,CC50,CCRF-CEM; [11],> 100 µM
same,TGI,CCRF-CEM; read-out: TGI,> 100 µM
same,GI50,CCRF-CEM; read-out: pGI50 (converted),2.69 µM
same,CC50,CCRF-CEM; [12],> 100 µM
same,TGI,CCRF-CEM; read-out: pTGI (converted),> 100 µM
same,GI50,HOP-62; read-out: GI50,9.52 µM
same,CC50,HOP-62; [11],> 100 µM
same,TGI,HOP-62; read-out: TGI,> 100 µM
same,GI50,HOP-62; read-out: pGI50 (converted),9.77 µM
same,CC50,HOP-62; [12],> 100 µM
same,TGI,HOP-62; read-out: pTGI (converted),> 100 µM
same,GI50,NCI-H460 [1]; read-out: GI50,3.04 µM
same,CC50,NCI-H460 [1]; [11],> 100 µM
same,TGI,NCI-H460 [1]; read-out: TGI,> 100 µM
same,GI50,NCI-H460 [1]; read-out: pGI50 (converted),3.02 µM
same,CC50,NCI-H460 [1]; [12],> 100 µM
same,TGI,NCI-H460 [1]; read-out: pTGI (converted),> 100 µM
same,GI50,HCT-15; read-out: GI50,2.5 µM
same,CC50,HCT-15; [11],> 100 µM
same,TGI,HCT-15; read-out: TGI,14.7 µM
same,GI50,HCT-15; read-out: pGI50 (converted),2.57 µM
same,CC50,HCT-15; [12],> 100 µM
same,TGI,HCT-15; read-out: pTGI (converted),14.8 µM
same,GI50,SK-MEL-5; read-out: GI50,2.51 µM
same,CC50,SK-MEL-5; [11],> 100 µM
same,TGI,SK-MEL-5; read-out: TGI,86.7 µM
same,GI50,SK-MEL-5; read-out: pGI50 (converted),2.63 µM
same,CC50,SK-MEL-5; [12],> 100 µM
same,TGI,SK-MEL-5; read-out: pTGI (converted),8.91 µM
same,GI50,MCF7 [2]; read-out: GI50,2.55 µM
same,LC50,MCF7 [2]; read-out: LC50,> 100 µM
same,TGI,MCF7 [2]; read-out: TGI,> 100 µM
same,GI50,MCF7 [2]; read-out: pGI50 (converted),2.88 µM
same,LC50,MCF7 [2]; read-out: pLC50 (converted),> 100 µM
same,TGI,MCF7 [2]; read-out: pTGI (converted),> 100 µM
same,pIC50,MDA-MB-468,5.51
same,GI50,MDA-MB-468; read-out: GI50,3.1 µM
same,CC50,MDA-MB-468; [11],> 100 µM
same,TGI,MDA-MB-468; read-out: TGI,> 100 µM
same,GI50,MDA-MB-468; read-out: pGI50 (converted),3.09 µM
same,CC50,MDA-MB-468; [12],> 100 µM
same,TGI,MDA-MB-468; read-out: pTGI (converted),> 100 µM
same,growth at 0.01 µM,A549 [3],95%
same,growth at 0.01 µM,NCI-H226,95%
same,growth at 0.01 µM,M14,100%
same,growth at 0.01 µM,OVCAR-4,96%
same,growth at 0.01 µM,ACHN [4],105%
same,growth at 0.01 µM,CAKI-1,97%
same,growth at 0.01 µM,UO-31,57%
same,growth at 0.01 µM,PC-3 [5],95%
same,growth at 0.01 µM,DU-145,104%
same,growth at 0.01 µM,Hs-578T,93%
same,growth at 0.1 µM,SNB-75,87%
same,growth at 0.1 µM,UACC-62,97%
same,growth at 0.1 µM,786-0,97%
same,growth at 0.1 µM,PC-3 [6],93%
same,growth at 1 µM,A549 [7],74%
same,growth at 1 µM,NCI-H460 [8],92%
same,growth at 1 µM,HCC 2998,96%
same,growth at 1 µM,ACHN [9],99%
same,growth at 1 µM,MCF7 [10],54%
same,growth at 1 µM,BT-549,101%
same,growth at 100 µM,NCI-H23,-10%
